Test results published in patent publication US20240398899A1 (priority 2021, published 2024).

Experiments:
Assay in all cases: Alzheimer's biomarker multiplex analysis, scopolamine-damaged SH-SY5Y
Type in all cases: cell-based, human
Details in all cases: Scopolamine (4 mM)
RAGE = test system: RAGE
Procedure: (§1) After overnight incubation as in the previous examples, cells were treated with recombinant lectin protein having SEQ ID NO: 1 at different concentrations ranging from 0.001 μg/ml-1 μg/ml for 24 h for Parkinson disease and 0.01 μg/ml-25 μg/ml for 24 h for Alzheimer's disease. • Parkinson Disease: After 24 h of pre-treatment with recombinant lectin protein having SEQ ID NO: 1, cells were exposed (MPP+) for another 24 h. Cells treated with MPP+Iodide were included as Control. […] The cells treated with Galantamine were included as positive Control.
(§2) The levels of markers were determined by multiplex analysis as: Cell culture supernatants were diluted (1:2) with Calibrator Diluent. 50 μl of standard or sample was added per well. 50 μl of the microparticle cocktail was added to each well of the microplate and covered with a foil plate sealer. The plate was incubated for 2 hours at room temperature on a horizontal orbital microplate shaker. The plate was washed using a magnetic device designed to accommodate a microplate. Washing was done by applying the magnet to the bottom of the microplate, allowing 1 minute before removing the liquid, filling each well with wash buffer (100 μl) and allowing 1 minute before removing the liquid again. 50 μl of diluted Biotin-Antibody Cocktail was added to each well. Covered the plate with a foil plate sealer and incubated for 1 hour at room temperature on the shaker. Repeated the wash step. 50 μl of diluted Streptavidin-PE was added to each well. The plate was securely covered with a foil plate sealer and incubated for 30 minutes at room temperature on the shaker. Repeated the wash step. The microparticles were resuspended by adding 100 μl of Wash Buffer to each well. The plate was incubated for 2 minutes on the shaker and read within 90 minutes using Magpix® multiplex machine. Levels of biomarkers for Parkinson's and Alzheimer's disease were estimated using Magpix® multiplex machine.
(§3) For Alzheimer's disease the percent modulation in each sample was determined as follows: […]

b-NGF = test system: b-NGF
Procedure: as §1, §2, §3

MPO = test system: MPO
Procedure: as §1, §2, §3

COc1ccc2c3c1O[C@H]1C[C@@H](O)C=C[C@@]31CCN(C)C2 [Galantamine, reference compound]
% Change of Biomarkers markers (wrt Control) RAGE (RAGE; 1 μM): 0%
% Change of Biomarkers markers (wrt Control) RAGE (RAGE; 10 μM): 0%
% Change of Biomarkers markers (wrt Control) RAGE (RAGE; 100 μM): −38.7%
% Change of Biomarkers markers (wrt Control) b-NGF (b-NGF; 1 μM): 9.1%
% Change of Biomarkers markers (wrt Control) b-NGF (b-NGF; 10 μM): 0%
% Change of Biomarkers markers (wrt Control) b-NGF (b-NGF; 100 μM): −9%
% Change of Biomarkers markers (wrt Control) MPO (MPO; 1 μM): −64%
% Change of Biomarkers markers (wrt Control) MPO (MPO; 10 μM): −31.2%
% Change of Biomarkers markers (wrt Control) MPO (MPO; 100 μM): −45.9%
